Results from ChEMBL document CHEMBL6182855, “Design and synthesis of phenanthridinone and phenanthridine derivatives and their radiosensitizing activity” (2025).
Activity calls are given as the source filed them. The calls are words filed in the database; no cut-off is given here.

Tests used:
HCT-116 [1] = experiment: Cytotoxicity against human HCT-116 cells assessed as cell growth inhibition incubated for 72 hrs by CCK-8 assay; type: functional
[2] = target: Tyrosyl-DNA phosphodiesterase 1 (Homo sapiens) (UniProt Q9NUW8); experiment: Inhibition of TDP1 (unknown origin) using (5'-FAM-AGGATCTAAAAGACTT-BHQ-3') as substrate at 100 uM by fluorescence assay
Sequence of Tyrosyl-DNA phosphodiesterase 1 (Homo sapiens) (Q9NUW8 whole entry): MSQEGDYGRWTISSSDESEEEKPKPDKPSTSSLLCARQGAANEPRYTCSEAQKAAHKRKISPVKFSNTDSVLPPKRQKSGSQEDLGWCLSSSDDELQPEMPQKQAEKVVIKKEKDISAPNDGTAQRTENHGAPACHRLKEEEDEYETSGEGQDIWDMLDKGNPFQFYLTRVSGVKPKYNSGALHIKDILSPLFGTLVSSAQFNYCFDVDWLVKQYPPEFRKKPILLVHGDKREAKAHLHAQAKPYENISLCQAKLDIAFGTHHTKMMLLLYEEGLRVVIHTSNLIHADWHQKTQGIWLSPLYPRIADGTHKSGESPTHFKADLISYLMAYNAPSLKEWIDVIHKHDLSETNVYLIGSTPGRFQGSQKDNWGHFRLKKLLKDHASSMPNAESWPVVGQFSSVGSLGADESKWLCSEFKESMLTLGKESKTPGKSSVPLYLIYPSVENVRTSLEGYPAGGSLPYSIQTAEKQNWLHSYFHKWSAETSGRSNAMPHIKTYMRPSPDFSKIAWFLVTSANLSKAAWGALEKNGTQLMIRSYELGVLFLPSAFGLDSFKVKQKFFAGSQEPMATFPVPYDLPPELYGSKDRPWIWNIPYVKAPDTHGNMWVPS

HCT-116 [3] = experiment: Cytotoxicity against human HCT-116 cells assessed as cell survival at 0.5 uM incubated for 72 hrs by CCK-8 assay relative to control; type: functional; conditions: read-out: Activity
HCT-116 [4] = experiment: Radiosensitizing activity in human HCT-116 cells assessed as reduction in cell viability at 0.5 uM co-treated with IR-2 Gy incubated for 72 hrs by CCK-8 assay (reference value: 37%); type: functional
HCT-116 [5] = experiment: Induction of cell cycle arrest in human HCT-116 cells assessed as accumulation of cells at G0/G1 phase at 5 uM incubated for 24 hrs in presence of IR-4 Gy by PI staining based flow cytometric analysis (reference value: 56.89%); type: functional
HCT-116 [6] = experiment: Radiosensitization activity in human HCT-116 cells assessed as combination index at 0.1 to 0.5 uM incubated for 24 hrs in presence of IR-2 Gy by crystal violet staining based colony formation assay; type: functional; conditions: dose 0.1-0.5 µM
HCT-116 [7] = experiment: Radiosensitization activity in human HCT-116 cells assessed as combination index at 0.25 uM incubated for 24 hrs in presence of IR-5 Gy by crystal violet staining based colony formation assay; type: functional
HCT-116 [8] = experiment: Induction of cell cycle arrest in human HCT-116 cells assessed as accumulation of cells at S phase at 5 uM incubated for 24 hrs in presence of IR-4 Gy by PI staining based flow cytometric analysis (reference value: 13.71%); type: functional
HCT-116 [9] = experiment: Induction of apoptosis in human HCT-116 cells assessed as viable cells at 5 uM incubated for 24 hrs by AnnexinV-FITC/PI staining based flow cytometry (reference value: 98.05%); type: functional; conditions: read-out: Activity
HCT-116 [10] = experiment: Induction of ROS generation in human HCT-116 cells assessed as fold increase in ROS level at 10 uM in presence of IR 4 Gy by DCFH-DA staining based ELISA; type: functional
HCT-116 [11] = experiment: Inhibition of colony formation in human HCT-116 cells at 0.25 uM incubated for 24 hrs by crystal violet staining based colony formation assay relative to control; type: functional
HCT-116 [12] = experiment: Induction of apoptosis in human HCT-116 cells assessed as late apoptotic cells at 5 uM incubated for 24 hrs by AnnexinV-FITC/PI staining based flow cytometry (reference value: 0.41%); type: functional
HCT-116 [13] = experiment: Induction of DNA damage in human HCT-116 cells assessed as increase in gamma-H2AX fluorescence intensity at 10 uM incubated for 6 hrs in presence of IR 4 Gy by DAPI staining based immunofluorescence microscopic analysis; type: functional, cell-based
HCT-116 [14] = experiment: Induction of apoptosis in human HCT-116 cells assessed as early apoptotic cells at 5 uM incubated for 24 hrs by AnnexinV-FITC/PI staining based flow cytometry (reference value: 1.41%); type: functional
HCT-116 [15] = experiment: Radiosensitization activity in human HCT-116 cells incubated for 24 hrs in presence of IR-2 Gy by crystal violet staining based colony formation assay; type: functional, cell-based; conditions: dose 0.1-0.5 µM
HCT-116 [16] = experiment: Induction of cell cycle arrest in human HCT-116 cells assessed as accumulation of cells at G0/G1 phase at 5 uM incubated for 24 hrs by PI staining based flow cytometric analysis (reference value: 58.75%); type: functional
HCT-116 [17] = experiment: Induction of ROS generation in human HCT-116 cells at 5 to 10 uM in presence of IR 4 Gy by DCFH-DA staining based ELISA; type: functional, cell-based; conditions: dose 5-10 µM
HCT-116 [18] = experiment: Induction of cell cycle arrest in human HCT-116 cells assessed as accumulation of cells at G2/M phase at 5 uM incubated for 24 hrs by PI staining based flow cytometric analysis (reference value: 23.42 %); type: functional
HCT-116 [19] = experiment: Induction of cell cycle arrest in human HCT-116 cells assessed as accumulation of cells at S phase at 5 uM incubated for 24 hrs by PI staining based flow cytometric analysis (reference value: 17.14%); type: functional
HCT-116 [20] = experiment: Induction of ROS generation in human HCT-116 cells at 5 to 10 uM by DCFH-DA staining based ELISA; type: functional, cell-based; conditions: dose 5-10 µM
HCT-116 [21] = experiment: Induction of DNA damage in human HCT-116 cells assessed as increase in gamma-H2AX fluorescence intensity at 10 uM incubated for 6 hrs by DAPI staining based immunofluorescence microscopic analysis; type: functional, cell-based
HCT-116 [22] = experiment: Radiosensitization activity in human HCT-116 cells assessed as cell killing at 0.25 uM incubated for 24 hrs in presence of IR-5 Gy by crystal violet staining based colony formation assay relative to control; type: functional
HCT-116 [23] = experiment: Induction of apoptosis in human HCT-116 cells assessed as viable cells at 5 uM incubated for 24 hrs in presence of IR-4 Gy by AnnexinV-FITC/PI staining based flow cytometry (reference value: 94.08%); type: functional; conditions: read-out: Activity
HCT-116 [24] = experiment: Induction of ROS generation in human HCT-116 cells assessed as fold increase in ROS level at 5 uM in presence of IR 4 Gy by DCFH-DA staining based ELISA; type: functional
HCT-116 [25] = experiment: Induction of apoptosis in human HCT-116 cells assessed as early apoptotic cells at 5 uM incubated for 24 hrs in presence of IR-4 Gy by AnnexinV-FITC/PI staining based flow cytometry (reference value: 4.88%); type: functional
HCT-116 [26] = experiment: Induction of apoptosis in human HCT-116 cells assessed as late apoptotic cells at 5 uM incubated for 24 hrs in presence of IR-4 Gy by AnnexinV-FITC/PI staining based flow cytometry (reference value: 0.93%); type: functional
HCT-116 [27] = experiment: Induction of cell cycle arrest in human HCT-116 cells assessed as accumulation of cells at G2/M phase at 5 uM incubated for 24 hrs in presence of IR-4 Gy by PI staining based flow cytometric analysis (reference value: 29.00 %); type: functional
HCT-116 [28] = experiment: Cytotoxicity against human HCT-116 cells assessed as cell killing at 0.5 uM incubated for 72 hrs by CCK-8 assay relative to control; type: functional
HCT-116 [29] = experiment: Cytotoxicity against human HCT-116 cells at 0.5 uM incubated for 72 hrs by CCK-8 assay; type: functional, cell-based
HCT-116 [30] = experiment: Radiosensitizing activity in human HCT-116 cells assessed as cell killing at 0.5 uM co-treated with IR-2 Gy incubated for 72 hrs by CCK-8 assay (reference value: 37%); type: functional

COc1cc2c(=O)n(CCn3cccn3)c3c4c(ccc3c2cc1OC)OCO4
GI50 (HCT-116 [1]): > 100 µM | inhibition [2]: inactive

COc1cc2c(=O)n(CCNC(=O)OC(C)(C)C)c3c4c(ccc3c2cc1OC)OCO4
GI50 (HCT-116 [1]): > 100 µM | inhibition [2]: inactive

COc1cc2c(NCCN3CCCC3)nc3c4c(ccc3c2cc1OC)OCO4
viability at 0.5 µM (HCT-116 [3]): ~80% | GI50 (HCT-116 [1]): 2.11 µM | inhibition [2]: inactive | Activity (HCT-116 [4]): Active

COc1cc2c(Nc3ccc(C(=O)N4CCN(C)CC4)cc3)nc3c4c(ccc3c2cc1OC)OCO4
GI50 (HCT-116 [1]): 3.32 µM | inhibition [2]: inactive

COc1cc2c(N3CCN(c4ncccn4)CC3)nc3c4c(ccc3c2cc1OC)OCO4
Activity (HCT-116 [5]): 23.41% | viability at 0.5 µM (HCT-116 [3]): 64% | CI (HCT-116 [6]): 0.4 | CI (HCT-116 [7]): 0.29 | Activity (HCT-116 [8]): 22.09% | viability at 5 µM (HCT-116 [9]): 95.2% | fold change (FC) (HCT-116 [10]): 1.8 | inhibition at 0.25 µM (HCT-116 [11]): 30% | GI50 (HCT-116 [1]): 6.08 µM | Activity (HCT-116 [12]): 2.1% | Activity (HCT-116 [13]): Active | Activity (HCT-116 [14]): 1.75% | inhibition [2]: inactive | Activity (HCT-116 [15]): Dose-dependent-effect | Activity (HCT-116 [16]): 36.95% | Activity (HCT-116 [17]): Active | Activity (HCT-116 [18]): 37.67% | Activity (HCT-116 [19]): 23.9% | Activity (HCT-116 [20]): inactive | Activity (HCT-116 [4]): <20% | Activity (HCT-116 [21]): Active | Activity (HCT-116 [22]): ~99% | viability at 5 µM (HCT-116 [23]): 89.4% | fold change (FC) (HCT-116 [24]): 1.4 | Activity (HCT-116 [25]): 7.21% | Activity (HCT-116 [26]): 3.11% | Activity (HCT-116 [27]): 43.16%

COc1cc2c(=O)n(CC(=O)N3CCOCC3)c3c4c(ccc3c2cc1OC)OCO4
GI50 (HCT-116 [1]): 54.2 µM | inhibition [2]: inactive

COc1cc2c(NCCN3CCN(C)CC3)nc3c4c(ccc3c2cc1OC)OCO4
GI50 (HCT-116 [1]): 0.85 µM | inhibition [2]: inactive

COc1cc2c(Nc3ccc(C(=O)N4CCCC4)cc3)nc3c4c(ccc3c2cc1OC)OCO4
GI50 (HCT-116 [1]): 1.46 µM | inhibition [2]: inactive

COc1cc2c(OCCN(C)C)nc3c4c(ccc3c2cc1OC)OCO4
GI50 (HCT-116 [1]): 0.32 µM | inhibition [2]: inactive | Activity (HCT-116 [28]): ~100%

COc1cc2c(=O)n(CCN3CCCCC3)c3c4c(ccc3c2cc1OC)OCO4
Activity (HCT-116 [29]): inactive | GI50 (HCT-116 [1]): 0.81 µM | inhibition [2]: inactive | Activity (HCT-116 [30]): 55%

COc1cc2c(=O)n(CCN3CCOCC3)c3c4c(ccc3c2cc1OC)OCO4
GI50 (HCT-116 [1]): 3.22 µM | inhibition [2]: inactive

COc1cc2c(=O)n(CCN3CCCC3)c3c4c(ccc3c2cc1OC)OCO4
GI50 (HCT-116 [1]): 0.56 µM | inhibition [2]: inactive | Activity (HCT-116 [28]): ~100%

COc1cc2c(Nc3ccc(C(=O)N4CCOCC4)cc3)nc3c4c(ccc3c2cc1OC)OCO4
GI50 (HCT-116 [1]): 5.26 µM | inhibition [2]: inactive

COc1cc2c(OCCN3CCN(C)CC3)nc3c4c(ccc3c2cc1OC)OCO4
GI50 (HCT-116 [1]): 7.88 µM | inhibition [2]: inactive

COc1ccc(Cn2c(=O)c3cc(OC)c(OC)cc3c3ccc4c(c32)OCO4)cc1
GI50 (HCT-116 [1]): > 100 µM | inhibition [2]: inactive

COc1cc2c(=O)n(CCc3cccs3)c3c4c(ccc3c2cc1OC)OCO4
GI50 (HCT-116 [1]): 44.8 µM | inhibition [2]: inactive

COc1cc2c(NCCN(C)C)nc3c4c(ccc3c2cc1OC)OCO4
GI50 (HCT-116 [1]): 0.47 µM | inhibition [2]: inactive | Activity (HCT-116 [28]): ~100%

COc1cc2c(=O)n(Cc3ccc(C(=O)O)cc3)c3c4c(ccc3c2cc1OC)OCO4
GI50 (HCT-116 [1]): > 100 µM | inhibition [2]: inactive

COc1cc2c(Nc3ccc(C(=O)N(C)C)cc3)nc3c4c(ccc3c2cc1OC)OCO4
GI50 (HCT-116 [1]): 7.79 µM | inhibition [2]: inactive

COc1cc2c(Nc3ccc(C(=O)N4CCC(OC)CC4)cc3)nc3c4c(ccc3c2cc1OC)OCO4
GI50 (HCT-116 [1]): 2.76 µM | inhibition [2]: inactive

COc1cc2c(OCCN3CCCC3)nc3c4c(ccc3c2cc1OC)OCO4
GI50 (HCT-116 [1]): 0.31 µM | inhibition [2]: inactive | Activity (HCT-116 [28]): ~100%

COc1cc2c(=O)n(CCn3cccc3)c3c4c(ccc3c2cc1OC)OCO4
GI50 (HCT-116 [1]): 17.3 µM | inhibition [2]: inactive

COc1cc2c(=O)n(CCN(C)C)c3c4c(ccc3c2cc1OC)OCO4
GI50 (HCT-116 [1]): 0.55 µM | inhibition [2]: inactive | Activity (HCT-116 [28]): ~100%

COc1cc2c(=O)n(CCN3CCN(C)CC3)c3c4c(ccc3c2cc1OC)OCO4
GI50 (HCT-116 [1]): 9.95 µM | inhibition [2]: inactive

COc1cc2c(=O)n(Cc3ccc(OC(F)(F)F)cc3)c3c4c(ccc3c2cc1OC)OCO4
GI50 (HCT-116 [1]): 4.79 µM | inhibition [2]: inactive
